# Results from PubChem BioAssay (NCI).
#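 1) Cells in 96-well plates. 2) Compound, 48 h, 5 concentrations. 3) Linear interpolation between surrounding doses. 4) Unreached endpoint = highest concentration. TGI marks complete inhibition of growth.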
# Assays:
# Assay in all cases: NCI anticancer screen, dose series, 48 h
# [1] = test system: A549 NSCLC
# [2] = test system: ACHN renal
# [3] = test system: CAKI-1 renal
# [4] = test system: CCRF-CEM leukemia
# [5] = test system: COLO 205 colon
# [6] = test system: DLD-1 colon
# [7] = test system: DMS 114 small cell lung
# [8] = test system: DMS 273 small cell lung
# [9] = test system: EKVX NSCLC
# [10] = test system: HCC-2998 colon
# [11] = test system: HCT-116 colon
# [12] = test system: HCT-15 colon
# [13] = test system: HL-60(TB) leukemia
# [14] = test system: HOP-62 NSCLC
# [15] = test system: HOP-92 NSCLC
# [16] = test system: HT29 colon
# [17] = test system: IGROV1 ovarian
# [18] = test system: K-562 leukemia
# [19] = test system: KM12 colon
# [20] = test system: KM20L2 colon
# [21] = test system: LOX IMVI melanoma
# [22] = test system: LXFL 529 NSCLC
# [23] = test system: M14 melanoma
# [24] = test system: M19-MEL melanoma
# [25] = test system: MALME-3M melanoma
# [26] = test system: MOLT-4 leukemia
# [27] = test system: NCI-H226 lung
# [28] = test system: NCI-H460 lung
# [29] = test system: NCI-H522 lung
# [30] = test system: OVCAR-3 ovarian
# [31] = test system: OVCAR-4 ovarian
# [32] = test system: OVCAR-5 ovarian
# [33] = test system: OVCAR-8 ovarian
# [34] = test system: RPMI-8226 leukemia
# [35] = test system: RXF 393 renal
# [36] = test system: SF-268 CNS
# [37] = test system: SF-295 CNS
# [38] = test system: SF-539 CNS
# [39] = test system: SK-MEL-2 melanoma
# [40] = test system: SK-MEL-28 melanoma
# [41] = test system: SK-OV-3 ovarian
# [42] = test system: SN12C renal
# [43] = test system: SNB-19 CNS
# [44] = test system: SR leukemia
# [45] = test system: SW-620 colon
# [46] = test system: TK-10 renal
# [47] = test system: UACC-62 melanoma
# [48] = test system: UO-31 renal
# [49] = test system: XF 498 CNS
# [50] = test system: A498 renal
# [51] = test system: NCI-H23 lung
# [52] = test system: SK-MEL-5 melanoma
# [53] = test system: SNB-78 CNS
# [54] = test system: U251 CNS
# [55] = test system: UACC-257 melanoma
smiles,measurement,setting,value
CC(/C=C/c1ncccc1OCCCCCC(=O)O)=N\NC1=NCCN1,TGI,[1],> 100 µM
same,TGI,[2],> 100 µM
same,TGI,[3],> 100 µM
same,TGI,[4],> 100 µM
same,TGI,[5],> 100 µM
same,TGI,[6],> 100 µM
same,TGI,[7],> 100 µM
same,TGI,[8],> 100 µM
same,TGI,[9],> 100 µM
same,TGI,[10],> 100 µM
same,TGI,[11],> 100 µM
same,TGI,[12],> 100 µM
same,TGI,[13],> 100 µM
same,TGI,[14],> 100 µM
same,TGI,[15],> 100 µM
same,TGI,[16],> 100 µM
same,TGI,[17],> 100 µM
same,TGI,[18],> 100 µM
same,TGI,[19],> 100 µM
same,TGI,[20],> 100 µM
same,TGI,[21],> 100 µM
same,TGI,[22],> 100 µM
same,TGI,[23],> 100 µM
same,TGI,[24],> 100 µM
same,TGI,[25],> 100 µM
same,TGI,[26],> 100 µM
same,TGI,[27],> 100 µM
same,TGI,[28],> 100 µM
same,TGI,[29],> 100 µM
same,TGI,[30],> 100 µM
same,TGI,[31],> 100 µM
same,TGI,[32],> 100 µM
same,TGI,[33],> 100 µM
same,TGI,[34],> 100 µM
same,TGI,[35],> 100 µM
same,TGI,[36],> 100 µM
same,TGI,[37],> 100 µM
same,TGI,[38],> 100 µM
same,TGI,[39],> 100 µM
same,TGI,[40],> 100 µM
same,TGI,[41],> 100 µM
same,TGI,[42],> 100 µM
same,TGI,[43],> 100 µM
same,TGI,[44],> 100 µM
same,TGI,[45],> 100 µM
same,TGI,[46],> 100 µM
same,TGI,[47],> 100 µM
same,TGI,[48],> 100 µM
same,TGI,[49],> 100 µM
Clc1ccccc1C(n1cc(Br)cn1)n1cc(Br)cn1,TGI,[50],35.9 µM
same,TGI,[2],55.2 µM
same,TGI,[3],> 100 µM
same,TGI,[4],93.1 µM
same,TGI,[6],54 µM
same,TGI,[7],56 µM
same,TGI,[8],53 µM
same,TGI,[11],42.9 µM
same,TGI,[13],44.6 µM
same,TGI,[14],57.9 µM
same,TGI,[16],29 µM
same,TGI,[18],> 100 µM
same,TGI,[19],40.8 µM
same,TGI,[21],31.2 µM
same,TGI,[22],> 100 µM
same,TGI,[23],36.9 µM
same,TGI,[24],34.5 µM
same,TGI,[25],46.9 µM
same,TGI,[26],39.2 µM
same,TGI,[51],> 100 µM
same,TGI,[28],28.1 µM
same,TGI,[29],> 100 µM
same,TGI,[31],> 100 µM
same,TGI,[32],49 µM
same,TGI,[33],55.1 µM
same,TGI,[34],46.3 µM
same,TGI,[35],34.4 µM
same,TGI,[37],43.1 µM
same,TGI,[39],45.6 µM
same,TGI,[40],> 100 µM
same,TGI,[52],23.1 µM
same,TGI,[42],30.6 µM
same,TGI,[43],> 100 µM
same,TGI,[53],> 100 µM
same,TGI,[44],92.9 µM
same,TGI,[46],> 100 µM
same,TGI,[54],> 100 µM
same,TGI,[55],31.7 µM
same,TGI,[48],32.6 µM
same,TGI,[49],40.6 µM
